Experimental data published in paper PMC7725003, “Systematically Studying the Optimal Amino Acid Distribution Patterns of the Amphiphilic Structure by Using the Ultrashort Amphiphiles” (Frontiers in Microbiology, 2020).
Where no end group is shown, it is not given here.

Key:
[1] = test system: B. subtilis 63501; format: cell-based, Bacillus subtilis; conditions: 63501, 24 h
In short: (§1)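 Peptides, diluted in 0.2% BSA, were mixed with mid-logarithmic cells in MHB (0.5–1 × 10^6 CFU/mL) and incubated for 24 h at 37 °C. Absorbance at 492 nm defined MIC as 95% growth inhibition; subculture onto agar overnight gave MBC as >99.9% kill.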

[2] = test system: MRSA 43300; format: cell-based, methicillin-resistant S. aureus; conditions: 43300, 24 h
In short: as §1

[3] = test system: S. aureus 29213; format: cell-based, Staphylococcus aureus; conditions: 29213, 24 h
In short: as §1

[4] = test system: S. aureus 25923; format: cell-based, Staphylococcus aureus; conditions: 25923, 24 h
In short: as §1

[5] = test system: all of the tested bacterial strains; assay: Geometric mean of MICs, all tested bacterial strains; format: cell-based
In short: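 Mid-log bacteria at 0.5–1 × 10^6 CFU mL^–1 in MHB with peptides serially diluted in 0.2% BSA, 24 h at 37°C. MIC is the lowest concentration giving 95% growth inhibition by A492. MBC is the lowest giving >99.9% kill on agar subculture, and the GM is taken over all strains.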

[6] = test system: Gram-negative bacteria; conditions: geometric mean of MBCs, 9 Gram-negative strains (Table 2)
[7] = test system: Gram-positive bacteria; conditions: geometric mean of MBCs, 7 Gram-positive strains (Table 2)
[8] = test system: Gram-positive bacteria
In short: (§2)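 Broth microdilution adapted from NCCLS: mid-log bacteria diluted in MHB to 0.5–1 × 10^6 CFU mL^–1, mixed with peptides serially diluted in 0.2% BSA. After 24 h at 37°C, MIC taken as the lowest concentration inhibiting 95% of growth by absorbance at 492 nm. Assays repeated more than 3 times.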

[9] = test system: Gram-negative bacteria
In short: as §2

[10] = test system: S. pullorum 7913; format: cell-based, Salmonella pullorum; conditions: 7913, 24 h
In short: as §1

[11] = test system: S. aureus 29213; assay: Salt sensitivity assay (MIC); format: cell-based, Staphylococcus aureus
In short: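 MICs determined by broth microdilution in MHB with 0.5–1 × 10^6 CFU/mL, peptides serially diluted in 0.2% BSA, 24 h at 37°C. Medium supplemented with physiological salts (150 mM NaCl, 4.5 mM KCl, 6 μM NH4Cl, 8 μM ZnCl2, 1 mM MgCl2, 2mM CaCl2, 4 μM FeCl3). MIC = lowest concentration inhibiting 95% growth (A492).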

[12] = test system: Listeria monocytogenes CGMCC 1.1075; format: cell-based; conditions: CGMCC 1.1075, 24 h
In short: as §1

[13] = test system: E. coli ATCC 25922; assay: Salt sensitivity assay (MIC); format: cell-based, Escherichia coli
In short: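 The salt sensitivity of peptides was tested against E. coli ATCC 25922 using a modified NCCLS broth microdilution MIC method. Mid-log bacteria were diluted in MHB to 0.5–1 × 10^6 CFU mL^–1 and mixed in equal volumes with peptides serially diluted in 0.2% BSA in 96-well plates. Physiological salt was added where specified, and the assay was done three independent times.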

[14] = test system: E. coli K99
Description: (§3) The antimicrobial activities of the peptides were measured using a method adapted from the National Committee for Clinical Laboratory Standards (NCCLS) with some modifications ([Chou et al., 2016]). The specific procedure for these assays has been previously described. In brief, the bacterial cells were grown to a mid-logarithmic phase and diluted in MHB to an ultimate concentration of 0.5–1 × 10^6 CFU mL^–1. Subsequently, the peptides were consecutively diluted in a 0.2% BSA solution and then added to a bacterial solution in a 96-well plate at identical volumes. After incubation for 24 h at 37°C, the MICs were determined to be the lowest peptide concentration that inhibited 95% of the bacterial growth by monitoring the absorbance at 492 nm using a microplate reader. Subsequently, 50 μL of each incubation mixture was further transferred to agar plates and incubated overnight. […] Every assay was reproduced more than 3 times.

[15] = test system: E. coli K88
Description: as §3

[16] = test system: S. epidermidis 12228; format: cell-based, Staphylococcus epidermidis; conditions: 12228, 24 h
In short: as §1

[17] = test system: S. typhimurium 7731; format: cell-based, Salmonella typhimurium; conditions: 7731, 24 h
In short: as §1

[18] = test system: S. typhimurium 14028; format: cell-based, Salmonella typhimurium; conditions: 14028, 24 h
In short: as §1

[19] = test system: E. coli UB1005; format: cell-based, Escherichia coli; conditions: UB1005, 24 h
In short: as §1

[20] = test system: E. coli 25922; format: cell-based, Escherichia coli; conditions: 25922, 24 h
In short: as §1

[21] = test system: E. coli O78; format: cell-based, Escherichia coli; conditions: O78, 24 h
In short: as §1

[22] = test system: E. faecalis 29212; format: cell-based, Enterococcus faecalis; conditions: 29212, 24 h
In short: as §1

[23] = test system: P. aeruginosa 27853; format: cell-based, Pseudomonas aeruginosa; conditions: 27853, 24 h
In short: as §1

[24] = therapeutic index TI = MHC/GM MIC
[25] = no added salt, three independent assays
[26] = MHB, 24 h 37°C, 95% growth inhibition
[27] = value in brackets, >99.9% of cells killed

LLRLRRRLL-NH2 [L2]
MBC [1]: 4 µM | MIC [1]: 2 µM | MBC [2]: 64 µM | MIC [2]: 32 µM | MBC [3]: 128 µM | MIC [3]: 64 µM | MIC [4]: > 64 µM | GM, All ([5]; geometric mean of MICs across all tested strains): 33.42 µM | TI, All [5, 24]: 7.66 | GM MBC [6]: 40.32 µM | GM MBC [7]: 70.66 µM | GM MIC ([8]; geometric mean of MICs, 7 Gram-positive strains (Table 2)): 52.50 µM | TI, Gram-positive bacteria [8, 24]: 4.88 | GM MIC ([9]; geometric mean of MICs, 9 Gram-negative strains (Table 2)): 21.77 µM | TI, Gram-negative bacteria [9, 24]: 11.76 | MBC [10]: 32 µM | MIC [10]: 16 µM | MIC, FeCl3 ([11]; 4 μM FeCl3): > 64 µM | MIC, NH4Cl ([11]; 6 μM NH4Cl): > 64 µM | MIC, ZnCl2 ([11]; 8 μM ZnCl2): > 64 µM | MIC, MgCl2 ([11]; 1 mM MgCl2): > 64 µM | MIC, CaCl2 ([11]; 2 mM CaCl2): > 64 µM | MIC, KCl ([11]; 4.5 mM KCl): > 64 µM | MIC, NaCl ([11]; 150 mM NaCl): > 64 µM | MIC, Control [11, 25]: > 64 µM | MIC [12]: >64 µM | MIC, FeCl3 ([13]; 4 μM FeCl3): 8 µM | MIC, NH4Cl ([13]; 6 μM NH4Cl): 8 µM | MIC, ZnCl2 ([13]; 8 μM ZnCl2): 8 µM | MIC, MgCl2 ([13]; 1 mM MgCl2): 16 µM | MIC, CaCl2 ([13]; 2 mM CaCl2): 32 µM | MIC, KCl ([13]; 4.5 mM KCl): 16 µM | MIC, NaCl ([13]; 150 mM NaCl): 32 µM | MIC, Control [13, 25]: 8 µM | MIC [14, 26]: 8 µM | MBC [14, 27]: 16 µM | MIC [15, 26]: 16 µM | MBC [15, 27]: 32 µM | MIC [16]: > 64 µM | MBC [17]: 128 µM | MIC [17]: 64 µM | MBC [18]: 128 µM | MIC [18]: 64 µM | MBC [19]: 32 µM | MIC [19]: 16 µM | MBC [20]: 16 µM | MIC [20]: 8 µM | MBC [21]: 16 µM | MIC [21]: 8 µM | MIC [22]: > 64 µM | MIC [23]: > 64 µM
